Patent US9113629B2, “4-amino-6-(4-substituted-phenyl)-picolinates and 6-amino-2-(4-substituted-phenyl)-pyrimidine-4-carboxylates and their use as herbicides” (DOW AGROSCIENCES LLC, priority 2013, dated 2015)
Where two headings read alike, the source gives them in different places.

Tests used:
[1] = test system: Key Grass and Sedge Weeds as well as Grass Crops; test: Post-emergent Test II herbicidal activity (Table 6); assay type: in vivo; conditions: post-emergence, 336 h; for pest or weed control at 70 g/ha: 70 g ai/ha; for pest or weed control at 140 g/ha: 140 g ai/ha
Method in brief: (§1)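 Percent injury, 0 (none) to 100 (complete kill), was judged visually 14 d after spraying young plants at the first or second true leaf stage with compound in an acetone/DMSO aqueous carrier at 187 L/ha. Plants were kept in a greenhouse at 23–29 °C by day.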

[2] = test system: Key Broadleaf Weed and Crop Species; test: Post-emergent Test II herbicidal activity (Table 5); assay type: in vivo; conditions: post-emergence, 336 h, 14 days after application; for pest or weed control at 70 g/ha: application rate 70 g ai/ha; for pest or weed control at 140 g/ha: application rate 140 g ai/ha
Method in brief: as §1

[3] = CYPES: yellow nutsedge (Cyperus esculentus), read-out: Visual Growth Reduction (%) 14 Days After Application, CYPES
[4] = DIGSA: crabgrass (Digitaria sanguinalis), read-out: Visual Growth Reduction (%) 14 Days After Application, DIGSA
[5] = ECHCG: barnyardgrass (Echinochloa crus-galli), read-out: Visual Growth Reduction (%) 14 Days After Application, ECHCG
[6] = ORYSA: rice (Oryza sativa), crop, read-out: Visual Growth Reduction (%) 14 Days After Application, ORYSA
[7] = SETFA: giant foxtail (Setaria faberi), read-out: Visual Growth Reduction (%) 14 Days After Application, SETFA
[8] = SORVU: grain sorghum (Sorghum vulgare), read-out: Visual Growth Reduction (%) 14 Days After Application, SORVU
[9] = TRZSS (wheat, Triticum aestivum), crop, read-out: Visual Growth Reduction (%) 14 Days After Application, TRZSS
[10] = ZEAMX: maize, corn (Zea mays), crop, read-out: Visual Growth Reduction (%) 14 Days After Application, ZEAMX
[11] = ABUTH: velvetleaf (Abutilon theophrasti), read-out: Visual Growth Reduction (%) 14 Days After Application, ABUTH
[12] = AMARE: redroot pigweed (Amaranthus retroflexus), read-out: Visual Growth Reduction (%) 14 Days After Application, AMARE
[13] = BRSNN: oilseed-rape, canola (Brassica napus), read-out: Visual Growth Reduction (%) 14 Days After Application, BRSNN
[14] = CHEAL: lambsquarters (Chenopodium album), read-out: Visual Growth Reduction (%) 14 Days After Application, CHEAL
[15] = EPHHL: wild poinsettia (Euphorbia heterophylla), read-out: Visual Growth Reduction (%) 14 Days After Application, EPHHL
[16] = HELAN: sunflower (Helianthus annuus), read-out: Visual Growth Reduction (%) 14 Days After Application, HELAN
[17] = VIOTR: wild pansy (Viola tricolor), read-out: Visual Growth Reduction (%) 14 Days After Application, VIOTR

C#Cc1ccc(-c2nc(C(=O)O)c(Cl)c(N)c2F)cc1 [Compound 62]
melting point: 142 to 147 °C (dec.) | pest or weed control at 70 g/ha [1, 3]: 95 to 100% | pest or weed control at 140 g/ha [1, 3]: 95 to 100% | pest or weed control at 70 g/ha [1, 4]: 85 to 94% | pest or weed control at 140 g/ha [1, 4]: 85 to 94% | pest or weed control at 70 g/ha [1, 5]: 95 to 100% | pest or weed control at 140 g/ha [1, 5]: 95 to 100% | pest or weed control at 70 g/ha [1, 6]: 0 to 29% | pest or weed control at 140 g/ha [1, 6]: 0 to 29% | pest or weed control at 70 g/ha [1, 7]: 95 to 100% | pest or weed control at 140 g/ha [1, 7]: 95 to 100% | pest or weed control at 70 g/ha [1, 8]: 75 to 84% | pest or weed control at 140 g/ha [1, 8]: 75 to 84% | pest or weed control at 70 g/ha [1, 9]: 45 to 59% | pest or weed control at 140 g/ha [1, 9]: 45 to 59% | pest or weed control at 70 g/ha [1, 10]: 75 to 84% | pest or weed control at 140 g/ha [1, 10]: 85 to 94% | pest or weed control at 70 g/ha [2, 11]: 75 to 84% | pest or weed control at 140 g/ha [2, 11]: 75 to 84% | pest or weed control at 70 g/ha [2, 12]: 95 to 100% | pest or weed control at 70 g/ha [2, 13]: 95 to 100% | pest or weed control at 140 g/ha [2, 13]: 95 to 100% | pest or weed control at 70 g/ha [2, 14]: 85 to 94% | pest or weed control at 140 g/ha [2, 14]: 85 to 94% | pest or weed control at 70 g/ha [2, 15]: 95 to 100% | pest or weed control at 140 g/ha [2, 15]: 95 to 100% | pest or weed control at 70 g/ha [2, 16]: 85 to 94% | pest or weed control at 140 g/ha [2, 16]: 95 to 100% | pest or weed control at 70 g/ha [2, 17]: 0 to 29% | pest or weed control at 140 g/ha [2, 17]: 0 to 29%

COC(=O)c1nc(-c2ccc(C(F)(F)F)c(F)c2F)nc(N)c1OC [Compound 64]
melting point: 140 to 141 °C | pest or weed control at 70 g/ha [1, 3]: 45 to 59% | pest or weed control at 140 g/ha [1, 3]: 60 to 74% | pest or weed control at 70 g/ha [1, 4]: 60 to 74% | pest or weed control at 140 g/ha [1, 4]: 85 to 94% | pest or weed control at 70 g/ha [1, 5]: 45 to 59% | pest or weed control at 140 g/ha [1, 5]: 85 to 94% | pest or weed control at 70 g/ha [1, 6]: 0 to 29% | pest or weed control at 140 g/ha [1, 6]: 0 to 29% | pest or weed control at 70 g/ha [1, 7]: 30 to 44% | pest or weed control at 140 g/ha [1, 7]: 60 to 74% | pest or weed control at 70 g/ha [1, 8]: 30 to 44% | pest or weed control at 140 g/ha [1, 8]: 45 to 59% | pest or weed control at 70 g/ha [1, 9]: 30 to 44% | pest or weed control at 140 g/ha [1, 9]: 45 to 59% | pest or weed control at 70 g/ha [1, 10]: 95 to 100% | pest or weed control at 140 g/ha [1, 10]: 95 to 100% | pest or weed control at 70 g/ha [2, 11]: 95 to 100% | pest or weed control at 140 g/ha [2, 11]: 95 to 100% | pest or weed control at 70 g/ha [2, 12]: 45 to 59% | pest or weed control at 140 g/ha [2, 12]: 75 to 84% | pest or weed control at 70 g/ha [2, 13]: 75 to 84% | pest or weed control at 140 g/ha [2, 13]: 85 to 94% | pest or weed control at 70 g/ha [2, 14]: 95 to 100% | pest or weed control at 140 g/ha [2, 14]: 95 to 100% | pest or weed control at 70 g/ha [2, 15]: 95 to 100% | pest or weed control at 140 g/ha [2, 15]: 95 to 100% | pest or weed control at 70 g/ha [2, 16]: 95 to 100% | pest or weed control at 140 g/ha [2, 16]: 95 to 100% | pest or weed control at 70 g/ha [2, 17]: 60 to 74% | pest or weed control at 140 g/ha [2, 17]: 60 to 74%

COc1c(N)nc(-c2ccc(C(F)(F)F)c(F)c2F)nc1C(=O)O [Compound 76]
melting point: 169 to 170 °C | pest or weed control at 70 g/ha [1, 3]: 0 to 29% | pest or weed control at 140 g/ha [1, 3]: 30 to 44% | pest or weed control at 70 g/ha [1, 4]: 75 to 84% | pest or weed control at 140 g/ha [1, 4]: 85 to 94% | pest or weed control at 70 g/ha [1, 5]: 85 to 94% | pest or weed control at 140 g/ha [1, 5]: 95 to 100% | pest or weed control at 70 g/ha [1, 6]: 0 to 29% | pest or weed control at 140 g/ha [1, 6]: 30 to 44% | pest or weed control at 70 g/ha [1, 7]: 45 to 59% | pest or weed control at 140 g/ha [1, 7]: 60 to 74% | pest or weed control at 70 g/ha [1, 8]: 45 to 59% | pest or weed control at 140 g/ha [1, 8]: 45 to 59% | pest or weed control at 70 g/ha [1, 9]: 45 to 59% | pest or weed control at 140 g/ha [1, 9]: 45 to 59% | pest or weed control at 70 g/ha [1, 10]: 0 to 29% | pest or weed control at 140 g/ha [1, 10]: 95 to 100% | pest or weed control at 70 g/ha [2, 11]: 95 to 100% | pest or weed control at 140 g/ha [2, 11]: 95 to 100% | pest or weed control at 70 g/ha [2, 12]: 95 to 100% | pest or weed control at 140 g/ha [2, 12]: 95 to 100% | pest or weed control at 70 g/ha [2, 13]: 85 to 94% | pest or weed control at 140 g/ha [2, 13]: 95 to 100% | pest or weed control at 70 g/ha [2, 14]: 85 to 94% | pest or weed control at 140 g/ha [2, 14]: 95 to 100% | pest or weed control at 70 g/ha [2, 15]: 95 to 100% | pest or weed control at 70 g/ha [2, 16]: 85 to 94% | pest or weed control at 140 g/ha [2, 16]: 95 to 100% | pest or weed control at 70 g/ha [2, 17]: 45 to 59% | pest or weed control at 140 g/ha [2, 17]: 60 to 74%
